Assay results published in US20210380948A1, “METHOD TO ALTER CHINESE HAMSTER OVARY CELL LINE STABILITY” (University of Delaware, priority 2018, published 2021).

Experiments:
CHO-K1 cells [1] = assay: γH2AX foci count after bleomycin DSB induction, CHO-K1; format: cell-based, Chinese hamster; conditions: for Induced DSB number: one-hour treatment
Protocol: (§1) CHO-K1, bEnd.3 or transfected CHO-K1 cells were seeded in chambers of an 8-well chambered cover glass (Cellvis, Mountain View, Calif.) at 2×10^5 cells/mL with 0.5 mL culture media. After 24-hour incubation, cells were treated with 10 μg/mL bleomycin (Sigma-Aldrich, St. Louis, Mo.) for 1 or 12 hours or with 50 μg/mL for 1 hour, followed by immediate media change with fresh warm culture media. After indicated hours of incubation in fresh media, the treated cells were washed three times with Tris buffered saline (TBS), fixed with 4% paraformaldehyde in TBS for 15 min, washed three times with TBS, permeabilized with 0.1% Triton-X100 (Sigma-Aldrich, St. Louis, Mo.) in TBS for 5 min, and washed three times with TBS. Cells were then blocked in TBS containing 3% goat serum (Sigma-Aldrich, St. Louis, Mo.) for 1 hour, incubated with 1:500 primary antibody (anti-phosphorylated γH2AX antibody, EMD Millipore, Billerica, Mass.) at 4° C. overnight, washed three times with TBS, and incubated with 1:1000 Alexa Fluor 488-conjugated secondary antibody (anti-mouse IgG antibody, Life Technologies, Carlsbad, Calif.) for 1 hour at room temperature. After three TBS washes, nuclei were stained with 4′,6-diamidino-2-phenylindole (DAPI, Invitrogen, Carlsbad, Calif.) for 15 min and again washed three times with TBS. Images were taken using a LSM 710 confocal microscope (Carl Zeiss, Thornwood, N.Y.) with a 63× objective. At least 50 cells and foci were counted per cell sample in duplicate cultures using software ImageJ.

[2] = test system: bEnd.3 mouse endothelial cells; assay: γH2AX foci count after bleomycin DSB induction, bEnd.3; format: cell-based; conditions: for Induced DSB number: one-hour treatment
Protocol: as §1

[3] = test system: BHK-21 hamster fibroblast; assay: γH2AX foci count after bleomycin DSB induction, BHK-21; format: cell-based; conditions: for Induced DSB number: one-hour treatment
Protocol: [The source words this procedure for another cell line and reports this cell line under the same test.] as §1

CHO-K1 cells [4] = assay: γH2AX foci count in CHO-K1 cells transiently expressing DSB repair genes after bleomycin treatment; format: cell-based, Chinese hamster; conditions: CH-version gene transiently expressed; 12-hour 10 μg/mL bleomycin; FIG. 3
Source text: To clone eight DSB repair genes, total mRNA from CHO-K1 cells or Chinese hamster liver tissue was extracted using Qiagen RNeasy Mini kit and reverse-transcribed into cDNA to be used as templates to generate gene fragments by PCR. FBXO18 gene and partial sequences of RNF8 and LIG4 genes were synthesized as gBlocks Gene Fragments (Integrated DNA Technologies, Coralville, Iowa). A vector fragment was obtained by PCR amplification from plasmid pcDNA3.1/zeo(+) (Thermo Fisher, Waltham, Mass.). Plasmids expressing DSB repair genes were constructed via Gibson assembly of gene fragment(s) and the vector fragment following the manufacturer's instruction (New England Biolabs, Ipswich, Mass.).
CHO-K1, BHK-21 hamster fibroblast (ATCC, Manassas, Va.) and bEnd.3 mouse endothelial cells (ATCC, Manassas, Va.) were cultured in 5 mL Iscove's Modified Dulbecco's Medium (IMDM, Hyclone Laboratories Inc., Logan, Utah) supplemented with 10% fetal bovine serum (FBS, Hyclone Laboratories Inc., Logan, Utah) in T-25 culture flasks (Corning Inc., Corning, N.Y.) at 37° C. and 5% CO2. […]
CHO-K1, bEnd.3 or transfected CHO-K1 cells were seeded in chambers of an 8-well chambered cover glass (Cellvis, Mountain View, Calif.) at 2×10^5 cells/mL with 0.5 mL culture media. […] At least 50 cells and foci were counted per cell sample in duplicate cultures using software ImageJ.

Molecule	DSB repair rate after removing bleomycin (CHO-K1 cells [1]; CHO cells, 12-hour treatment with 10 μg/mL bleomycin) [DSB per hour]	Induced DSB number (CHO-K1 cells [1]; CHO-K1, BL 10 μg/mL)	Induced DSB number (CHO-K1 cells [1]; CHO-K1, BL 50 μg/mL)	Repair rate (CHO-K1 cells [1]; CHO-K1, after BL 10 μg/mL one-hour treatment) [DSB/hour]	Repair rate (CHO-K1 cells [1]; CHO-K1, after BL 50 μg/mL one-hour treatment) [DSB/hour]	DSB repair rate after removing bleomycin ([2]; bEnd.3 cells, 12-hour treatment with 10 μg/mL bleomycin) [DSB per hour]	Induced DSB number ([2]; bEnd.3, BL 10 μg/mL)	Induced DSB number ([2]; bEnd.3, BL 50 μg/mL)	Repair rate ([2]; bEnd.3, after BL 10 μg/mL one-hour treatment) [DSB/hour]	Repair rate ([2]; bEnd.3, after BL 50 μg/mL one-hour treatment) [DSB/hour]	Induced DSB number ([3]; BHK-21, BL 10 μg/mL)	Induced DSB number ([3]; BHK-21, BL 50 μg/mL)	Repair rate ([3]; BHK-21, after BL 10 μg/mL one-hour treatment) [DSB/hour]	Repair rate ([3]; BHK-21, after BL 50 μg/mL one-hour treatment) [DSB/hour]	DSB repair rate after removing bleomycin ([3]; BHK-21 cells, 12-hour treatment with 10 μg/mL bleomycin) [DSB per hour]	DSB level at one hour after bleomycin removal versus control CHO-K1 cells (CHO-K1 cells [4])	DSB repair within 24 hours after bleomycin removal versus control CHO-K1 cells (CHO-K1 cells [4])
bleomycin	0.89	6	13	0.9	1.7	1.03	14	21	2.2	3.2	13	20	1.8	2.3	2.64	–	–
LIG4: heterologous DSB repair protein DNA ligase IV, CH- or CHO-version, expressed from plasmid in CHO-K1 cells (protein, UniProt G3GTP0 1-912, looked up) DNA ligase 4: MATSQTSQTVAAHVPFADLCSTLERIQKSKERAEKIRHFKEFLDSWRKFHDALHKNKKDVTDSFYPAMRLILPQLERERMAYGIKETMLAKLYIELLNLPREGKDALKLLNYRTPSGARTDAGDFAVIAYFVLKPRCLQKGSLTIQQVNELLDLVASNNSGKRKDLVKKSLLQLITQSSALEQKWLIRMIIKDLKLGVSQQTILNIFHNDAVELHNVTTDLEKVCRQLHDPAVGLSDISITLFSAFKPMLAAVADVERVEKDMKQQSFYIETKLDGERMQMHKDGSVYQYFSRNGYNYTDQFGASPQEGTLTPFIHDAFRTDVQVCILDGEMMAYNPTTQTFMQKGVKFDIKRMVEDSDLQTCYCVFDVLMVNNKKLGRETLRKRYDILNSTFTPIQGRIEIVQKKLAQTKNEVVDALNEAIDKREEGIMIKHPLSIYKPDKRGEGWLKIKPEYVSGLMDELDLLIVGGYWGKGSRGGMMSHFLCAVAEKPPHGEKPSVFHTLCRVGSGYTMKELYDLGLKLAKYWKPFHKKSPPSSILCGTEKPEVYIEPCNSVIVQIKAAEIVPSDMYKTGTTLRFPRIEKIRDDKEWHECMTLGDLEELRGKASGKLATKHLHVGDDDEPREKRRKPVSKMKKTIGIIEHLKAPNLSNISKVSNVFEDVEFCVMSGLDGYPKSDLENRIAEFGGYIVQNPGPDTYCVIAGCENIRVKNIISSDQHDVVKPEWLLECFKTKTCVPWQPRFMIHMCPSTKQHFAREYDCYGDSYFVDTDLDQLKEVFLGIKKAGEHQTPEEMAPVIADLEYRYSWDHSPLCMFRHCTVYLDLYAVINDSSSKIKATRLDVTALELRFHGAKVVSHLSEGVSHVIIGENQSRVSDFKVFRRTLKKKFKILQERWVTDSVDKGELQEENQYLL	–	–	–	–	–	–	–	–	–	–	–	–	–	–	–	lower DSB level	significantly improved DSB repair
